From PMC9180926, “Discovery of Novel 3-Hydroxyquinazoline-2,4(1H,3H)-Dione Derivatives: A Series of Metal Ion Chelators with Potent Anti-HCV Activities” (International Journal of Molecular Sciences, 2022)
Where two headings read alike, the source gives them in different places.

What was measured:
[1] = tested on: HCV 1b replicon cells (Huh-7.5.1); experiment: Anti-HCV assay, HCV 1b replicon cells with luciferase reporter; format: cell-based, hepatitis C virus (HCV) subtype 1b; settings: for inhibition at 10 µM / inhibition at 25 µM: Huh-7.5.1, 72 h; for inhibition at 10 µM: read-out: HCV Inhibition 10 μM; for inhibition at 25 µM: read-out: HCV Inhibition 25 μM; for EC50: mean ± SD; for HCV inhibition at the tested concentrations: at the tested concentrations (25 μM and 10 μM)
Description: (§1) The HCV replicons were validated as convenient and effective models for testing the anti-HCV activity. Since HCV subtype 1b is one of the major subtypes worldwide, especially in China, the replicon model from the Huh-7.5.1 cell line integrating HCV 1b genome encoding the nonstructural proteins was chosen to evaluate the anti-HCV activities of 3-hydroxyquinazoline-2,4(1H,3H)-diones. The inhibitory rates of the compounds on HCV replicon cells were determined at concentrations of 25 μM and 10 μM, respectively. The broad-spectrum antiviral drug ribavirin (RBV) and the NS5B nucleoside inhibitor 2′-C-methyladenosine (2CMA) were selected as positive controls. The cytotoxicity of these compounds on replicon cells was determined using the cell counting kit-8 (CCK-8) assay.
HCV 1b replicon cells (Huh-7.5.1) containing luciferase reporter gene were kindly provided by Prof. Zhenghong Yuan (Key Laboratory of Medical Molecular Virology, Fudan University, Shanghai, China). The replicon cells were plated at 1.5 × 10^4 cells per well in a 48-well plate (Corning Inc., New York, NY, USA) at 5% CO2/37 °C. The culture medium was Dulbecco’s Modified Eagle Medium (DMEM, pH 7.3, Shanghai XP Biomed Ltd., Shanghai, China) containing 10% fetal bovine serum (Shanghai XP Biomed Ltd., Shanghai, China), 10^5 U/L penicillin, 0.1 g/L streptomycin, and 0.5 μg/mL blasticidin. After 12 h, the culture medium in each well was replaced with 300 μL of pre-prepared fresh culture medium containing test compound (dissolved in DMSO with specific concentration) or blank DMSO. The final concentration of DMSO in the culture medium in the plate was 0.1%. Each group was tested at least twice in parallel. Ribavirin and 2CMA were used as the positive controls. After incubating the drug-added plate at 5% CO2/37 °C for 72 h, the medium was removed, and each well was washed with 300 μL of phosphate buffer solution (PBS, Shanghai XP Biomed Ltd., Shanghai, China). The cells in each well were then lysed with 50 μL of 1× lysis buffer (E2820, Promega, Madison, WI, USA). Subsequently, 50 μL of 1× luciferase assay substrate (E2820, Promega, Madison, WI, USA) was mixed with 20 μL of the harvested cell lysates.
The inhibitory rates under at least six different concentration gradients were imported into GraphPad Prism 7.0 software to calculate the anti-HCV EC50 values of the compounds using the nonlinear fitting method.

[2] = Cytotoxicity assay (CCK-8) on replicon cells; format: cell-based; settings: human, HCV 1b replicon cells (Huh-7.5.1); 50% cytotoxic concentration; CCK-8, HCV 1b replicon cells, 72 h
Description: as §1
The HCV 1b replicon cells were incubated and treated with test compounds or blank DMSO in a 48-well plate using the same materials and methods as described in the experimental procedure of anti-HCV assay. The final concentration of DMSO in each well was 0.1%. After 72 h of drug treatment, the culture medium in the well plate was removed, and cells in each well were washed with 300 μL of PBS. A total of 300 μL of pre-prepared fresh culture medium containing 30 μL CCK-8 reagent (Donjindo, Kumamoto, Japan) was added to each well, and the plate was incubated at 5% CO2/37 °C for 2 h. The OD (optical density) value of each well at 450 nm was measured using a multi-function microplate reader (SpectraMax M5, Molecular Devices, San Jose, CA, USA). The death ratio of each well was calculated using the following equation, in which ODcompound or ODblank represents the measured OD value of the compound group or the blank control (DMSO), respectively:death ratio = (1−ODcompound/ODblank) × 100%(2)
The cell death data under at least six different concentration gradients were imported into GraphPad Prism 7.0.0 software (GraphPad Software Inc., San Diego, CA, USA), and the CC50 (50% cytotoxic concentration) values were calculated using the nonlinear fitting method.

[3] = Hepatitis C virus, inhibitory rate at 10 μM, HCV 1b replicon cells, 72 h
[4] = Hepatitis C virus, inhibitory rate at 25 μM, HCV 1b replicon cells, 72 h
[5] = Hepatitis C virus, Huh-7.5.1, 50% effective concentration, HCV 1b replicon cells

`COc1ccc(-c2cccc3c(=O)n(O)c(=O)[nH]c23)cc1` [21w, 3-Hydroxy-8-(4-methoxyphenyl)quinazoline-2,4(1H,3H)-dione] gave an inhibition at 10 µM [1, 3] of 11.5% and an inhibition at 25 µM [1, 4] of 36.4%.

Work on `O=C(Cn1c(=O)n(O)c(=O)c2ccccc21)NCc1cccc(F)c1` [10l, N-(3-Fluorobenzyl)-2-(3-hydroxy-2,4-dioxo-3,4-dihydroquinazolin-1(2H)-yl)acetamide] yielded an inhibition at 10 µM [1, 3] of 22.4% and an inhibition at 25 µM [1, 4] of 45.5%.

Work on `O=C(Cn1c(=O)n(O)c(=O)c2ccccc21)NCc1c(Cl)cccc1Cl` [10k, N-(2,6-Dichlorobenzyl)-2-(3-hydroxy-2,4-dioxo-3,4-dihydroquinazolin-1(2H)-yl)acetamide] yielded an inhibition at 10 µM [1, 3] of 43.7% and an inhibition at 25 µM [1, 4] of 54.7%.

With `O=C(Cn1c(=O)n(O)c(=O)c2ccccc21)Nc1ccccc1` [10j, 2-(3-Hydroxy-2,4-dioxo-3,4-dihydroquinazolin-1(2H)-yl)-N-phenylacetamide] the inhibition at 10 µM [1, 3] was 30.1% and the inhibition at 25 µM [1, 4] was 62.7%.

For `Cc1ccc(F)cc1-c1ccc2c(=O)n(O)c(=O)[nH]c2c1` [21p, 7-(5-Fluoro-2-methylphenyl)-3-hydroxyquinazoline-2,4(1H,3H)-dione], the EC50 [1, 5] was 9.9 ± 0.6 µM, the inhibition at 10 µM [1, 3] was 44.9% and the CC50 at 72 h [2] was 13.4 ± 5.2 µM.

In the case of `CCCn1c(=O)n(O)c(=O)c2cc(-c3ccccc3)ccc21` [23f, 3-Hydroxy-6-phenyl-1-propylquinazoline-2,4(1H,3H)-dione], the inhibition at 10 µM [1, 3] is reported as 26.7% and the inhibition at 25 µM [1, 4] is reported as 28%.

Work on `O=c1[nH]c2c(-c3ccc(C(F)(F)F)cc3)cccc2c(=O)n1O` [21x, 3-Hydroxy-8-(4-(trifluoromethyl)phenyl)quinazoline-2,4(1H,3H)-dione] yielded an inhibition at 10 µM [1, 3] of 16.4% and an inhibition at 25 µM [1, 4] of 47.5%.

For `COc1ccc(-c2ccc3c(=O)n(O)c(=O)[nH]c3c2)cc1` [21i, 3-Hydroxy-7-(4-methoxyphenyl)quinazoline-2,4(1H,3H)-dione], the EC50 [1, 5] was 3.4 ± 0.1 µM, the inhibition at 10 µM [1, 3] was 64.7% and the CC50 at 72 h [2] was 5.6 ± 0.5 µM.

Compound `CCn1c(=O)n(O)c(=O)c2ccc(-c3ccccc3)cc21` [23e, 1-Ethyl-3-hydroxy-7-phenylquinazoline-2,4(1H,3H)-dione] has an EC50 [1, 5] of 26.8 ± 2.5 µM, an inhibition at 10 µM [1, 3] of 24.6% and an inhibition at 25 µM [1, 4] of 77.5%. For the same compound, the CC50 at 72 h [2] was 39.5 ± 2.3 µM.

With `O=C(Cn1c(=O)n(O)c(=O)c2ccccc21)Nc1ccc(C(F)(F)F)cc1` [10p, 2-(3-Hydroxy-2,4-dioxo-3,4-dihydroquinazolin-1(2H)-yl)-N-(4-(trifluoromethyl)phenyl)acetamide] the EC50 ([1]; 50% effective concentration, HCV 1b replicon cells) was 8.1 ± 0.1 µM, the EC50 [1, 5] was under 10 µM and the inhibition at 10 µM [1, 3] was 41.4%. The inhibition at 25 µM [1, 4] was 64.9% and the CC50 at 72 h [2] was 15.3 ± 0.7 µM.

Compound `O=c1c2cc(-c3ccccc3)ccc2n(Cc2ccccc2)c(=O)n1O` [23h, 1-Benzyl-3-hydroxy-6-phenylquinazoline-2,4(1H,3H)-dione] has an inhibition at 10 µM [1, 3] of 7.8% and an inhibition at 25 µM [1, 4] of 2%.

For `COc1ccc(NC(=O)Cn2c(=O)n(O)c(=O)c3ccccc32)cc1` [10o, 2-(3-Hydroxy-2,4-dioxo-3,4-dihydroquinazolin-1(2H)-yl)-N-(4-methoxyphenyl)acetamide], the inhibition at 10 µM [1, 3] was 16.9% and the inhibition at 25 µM [1, 4] was 67.5%.

In the case of `O=C(Cn1c(=O)n(O)c(=O)c2ccccc21)c1ccccc1` [10e, 3-Hydroxy-1-(2-oxo-2-phenylethyl)quinazoline-2,4(1H,3H)-dione], the EC50 [1, 5] is reported as 11.3 ± 3 µM, the inhibition at 10 µM [1, 3] is reported as 46.1% and the inhibition at 25 µM [1, 4] is reported as 68%. The CC50 at 72 h [2] was 13.1 ± 1.7 µM.

For `O=C(Cn1c(=O)n(O)c(=O)c2ccccc21)NCC1CC1` [10g, N-(Cyclopropylmethyl)-2-(3-hydroxy-2,4-dioxo-3,4-dihydroquinazolin-1(2H)-yl)acetamide], the inhibition at 10 µM [1, 3] was 10.6%, the inhibition at 25 µM [1, 4] was 15% and the “HCV inhibition at the tested concentrations” value [1] was “less than 30%”.

`Cn1c(=O)n(O)c(=O)c2cc(-c3cccc([N+](=O)[O-])c3)ccc21` [23a, 3-Hydroxy-1-methyl-6-(3-nitrophenyl)quinazoline-2,4(1H,3H)-dione] showed an EC50 [1, 5] of 2.3 ± 0.1 µM, an inhibition at 10 µM [1, 3] of 66.5% and a CC50 at 72 h [2] of 5.2 ± 0.1 µM.

Work on `O=C(Cn1c(=O)n(O)c(=O)c2ccccc21)NCCc1ccccc1` [10f, 2-(3-Hydroxy-2,4-dioxo-3,4-dihydroquinazolin-1(2H)-yl)-N-phenethylacetamide] yielded an inhibition at 10 µM [1, 3] of 13.3% and an inhibition at 25 µM [1, 4] of at most 50%.

`O=C(Cn1c(=O)n(O)c(=O)c2ccccc21)NCc1ccccc1` [10h, N-Benzyl-2-(3-hydroxy-2,4-dioxo-3,4-dihydroquinazolin-1(2H)-yl)acetamide] gave an inhibition at 10 µM [1, 3] of 1.3% and an inhibition at 25 µM [1, 4] of at most 50%.

In the case of `O=c1[nH]c2cc(Cc3ccccc3)ccc2c(=O)n1O` [18a, 7-Benzyl-3-hydroxyquinazoline-2,4(1H,3H)-dione], the inhibition at 10 µM [1, 3] is reported as 28.6% and the inhibition at 25 µM [1, 4] is reported as 59.8%.

In the case of `CCCn1c(=O)n(O)c(=O)c2ccc(-c3ccccc3)cc21` [23g, 3-Hydroxy-7-phenyl-1-propylquinazoline-2,4(1H,3H)-dione], the inhibition at 10 µM [1, 3] is reported as -2.2% and the inhibition at 25 µM [1, 4] is reported as 67.4%.

With `Cn1c(=O)n(O)c(=O)c2ccc(Cc3ccccc3)cc21` [18b, 7-Benzyl-3-hydroxy-1-methylquinazoline-2,4(1H,3H)-dione] the inhibition at 10 µM [1, 3] was 23%.

Work on `O=c1[nH]c2ccccc2c(=O)n1O` [10a, 3-Hydroxyquinazoline-2,4(1H,3H)-dione] yielded an inhibition at 10 µM ([1]; Hepatitis C virus) of -3% and an inhibition at 25 µM ([1]; Hepatitis C virus) of 36%.

For `O=C(Cn1c(=O)n(O)c(=O)c2ccccc21)NCc1ccc(F)cc1` [10m, N-(4-Fluorobenzyl)-2-(3-hydroxy-2,4-dioxo-3,4-dihydroquinazolin-1(2H)-yl)acetamide], the inhibition at 10 µM [1, 3] was 12.7% and the inhibition at 25 µM [1, 4] was 58.4%.

For `CCCCNC(=O)Cn1c(=O)n(O)c(=O)c2ccccc21` [10i, N-Butyl-2-(3-hydroxy-2,4-dioxo-3,4-dihydroquinazolin-1(2H)-yl)acetamide], the inhibition at 10 µM [1, 3] was 26.5%, the inhibition at 25 µM [1, 4] was 22.9% and the “HCV inhibition at the tested concentrations” value [1] was “less than 30%”.

`O=c1[nH]c2c(-c3ccc(F)cc3)cccc2c(=O)n1O` [21v, 8-(4-Fluorophenyl)-3-hydroxyquinazoline-2,4(1H,3H)-dione] showed an inhibition at 10 µM [1, 3] of 23.5% and an inhibition at 25 µM [1, 4] of 44.5%.

For `O=c1c2ccccc2n(CCCc2ccccc2)c(=O)n1O` [10b, 3-Hydroxy-1-(3-phenylpropyl)quinazoline-2,4(1H,3H)-dione], the inhibition at 10 µM [1, 3] was 28.6% and the inhibition at 25 µM [1, 4] was 40.9%.

Compound `O=c1[nH]c2cc(-c3cc(F)cc(F)c3)ccc2c(=O)n1O` [21m, 7-(3,5-Difluorophenyl)-3-hydroxyquinazoline-2,4(1H,3H)-dione] has an inhibition at 10 µM [1, 3] of 48.2%.

Work on `O=c1c2ccc(-c3ccccc3)cc2n(Cc2ccccc2)c(=O)n1O` [23i, 1-Benzyl-3-hydroxy-7-phenylquinazoline-2,4(1H,3H)-dione] yielded an inhibition at 10 µM [1, 3] of -6.5% and an inhibition at 25 µM [1, 4] of 4.8%.

For `O=c1[nH]c2cc(-c3cc(F)c(F)c(F)c3)ccc2c(=O)n1O` [21q, 3-Hydroxy-7-(3,4,5-trifluorophenyl)quinazoline-2,4(1H,3H)-dione], the inhibition at 10 µM [1, 3] was 26.8% and the inhibition at 25 µM [1, 4] was 5.4%.

`Cn1c(=O)n(O)c(=O)c2ccc(Cc3cc(F)cc(F)c3)cc21` [18c, 7-(3,5-Difluorobenzyl)-3-hydroxy-1-methylquinazoline-2,4(1H,3H)-dione] gave an inhibition at 10 µM [1, 3] of 39.5%.
